# pIC50: −log10 of the molar value. Active and inactive are the calls of the source. The calls are words filed in the database; no cut-off is given here.
# Assays:
# A549 [1] = test: Cytotoxicity against human A549 cells assessed as growth inhibition after 72 hrs by MTT assay; assay type: functional, cell-based; settings: A549, 72 h
# MCF7 [2] = test: Cytotoxicity against human MCF7 cells assessed as growth inhibition after 72 hrs by MTT assay; assay type: functional, cell-based; settings: MCF7, 72 h
# L02 [3] = test: Cytotoxicity against human L02 cells assessed as growth inhibition after 72 hrs by MTT assay; assay type: cell-based; settings: L02, 72 h
# HepG2 [4] = test: Cytotoxicity against human HepG2 cells assessed as growth inhibition after 72 hrs by MTT assay; assay type: functional, cell-based; settings: HepG2, 72 h
# L02 [5] = test: Induction of apoptosis in human L02 cells assessed as decrease in cell number at 10 to 30 nM after 72 hrs by DAPI staining-based fluorescence microscopic method; settings: l02, 72 h, 0.03 µM
# A549 [6] = test: Induction of apoptosis in human A549 cells assessed as nuclear fragmentation at 10 to 30 nM after 72 hrs by DAPI staining-based fluorescence microscopic method; assay type: functional, cell-based
# A549 [7] = test: Induction of morphological changes in human A549 cells assessed as irregular shape at 10 to 30 nM after 72 hrs by DAPI staining-based fluorescence microscopic method; assay type: functional, cell-based
# L02 [8] = test: Induction of morphological changes in human L02 cells assessed as irregular shape at 10 to 30 nM after 72 hrs by DAPI staining-based fluorescence microscopic method; assay type: cell-based; settings: l02, 72 h, 0.03 µM
# A549 [9] = test: Induction of apoptosis in human A549 cells assessed as decrease in cell number at 10 to 30 nM after 72 hrs by DAPI staining-based fluorescence microscopic method; assay type: functional
# L02 [10] = test: Induction of apoptosis in human L02 cells assessed as nuclear fragmentation at 10 to 30 nM after 72 hrs by DAPI staining-based fluorescence microscopic method; assay type: cell-based; settings: l02, 72 h, 0.03 µM
# A549 [11] = test: Potency index, ratio of VP-16 IC50 to test compound IC50 for human A549 cells; assay type: functional
# A549 [12] = test: Potency index, ratio of doxorubicin IC50 to test compound IC50 for human A549 cells; assay type: functional
# [13] = Selectivity index, ratio of IC50 for human L02 cells to IC50 for human A549 cells; assay type: toxicity; settings: L02 cells versus A549 cells, read-out: Ratio IC50
# MCF7 [14] = test: Potency index, ratio of VP-16 IC50 to test compound IC50 for human MCF7 cells; assay type: functional
# MCF7 [15] = test: Potency index, ratio of doxorubicin IC50 to test compound IC50 for human MCF7 cells; assay type: functional
# HepG2 [16] = test: Potency index, ratio of VP-16 IC50 to test compound IC50 for human HepG2 cells; assay type: functional
# HepG2 [17] = test: Potency index, ratio of doxorubicin IC50 to test compound IC50 for human HepG2 cells; assay type: functional
smiles,measurement,setting,value
COc1cc([C@@H]2c3cc4c(cc3[C@H](OC(=O)c3nc(C)c(C)nc3C)[C@H]3COC(=O)[C@H]23)OCO4)cc(OC)c1OC,pIC50,A549 [1],7.11
same,pIC50,MCF7 [2],7.20
same,pIC50,L02 [3],6.94
same,pIC50,HepG2 [4],7.24
CNCC(=O)O[C@H]1c2cc3c(cc2[C@@H](c2cc(OC)c(OC)c(OC)c2)[C@H]2C(=O)OC[C@@H]21)OCO3,pIC50,A549 [1],8.17
same,pIC50,MCF7 [2],7.76
same,Activity,L02 [5],Toxic
same,Activity,A549 [6],Active
same,pIC50,L02 [3],8.02
same,Activity,A549 [7],Active
same,Activity,L02 [8],Toxic
same,Activity,A549 [9],Active
same,Activity,L02 [10],Toxic
same,pIC50,HepG2 [4],7.60
COc1cc([C@@H]2c3cc4c(cc3[C@H](OC(=O)[C@H](C)N)[C@H]3COC(=O)[C@H]23)OCO4)cc(OC)c1OC,pIC50,A549 [1],7.87
same,pIC50,MCF7 [2],7.73
same,pIC50,L02 [3],7.97
same,pIC50,HepG2 [4],7.75
COc1cc([C@@H]2c3cc4c(cc3[C@H](OC(=O)CNC(=O)OC(C)(C)C)[C@H]3COC(=O)[C@H]23)OCO4)cc(OC)c1OC,pIC50,A549 [1],8.80
same,pIC50,MCF7 [2],7.95
same,pIC50,L02 [3],8.14
same,Ratio IC50,A549 [11],5900
same,Ratio IC50,A549 [12],140
same,pIC50,HepG2 [4],7.58
COc1cc([C@@H]2c3cc4c(cc3[C@H](OC(=O)[C@@H]3CCCN3C(=O)c3nc(C)c(C)nc3C)[C@H]3COC(=O)[C@H]23)OCO4)cc(OC)c1OC,pIC50,A549 [1],7.10
same,pIC50,MCF7 [2],6.91
same,pIC50,L02 [3],6.88
same,pIC50,HepG2 [4],6.95
COc1cc([C@@H]2c3cc4c(cc3[C@H](OC(=O)[C@H](Cc3ccccc3)NC(=O)OC(C)(C)C)[C@H]3COC(=O)[C@H]23)OCO4)cc(OC)c1OC,pIC50,A549 [1],7.52
same,pIC50,MCF7 [2],7.02
same,pIC50,L02 [3],7.11
same,pIC50,HepG2 [4],7.06
COc1cc([C@@H]2c3cc4c(cc3[C@H](OC(=O)[C@@H]3CCCN3C(=O)OC(C)(C)C)[C@H]3COC(=O)[C@H]23)OCO4)cc(OC)c1OC,pIC50,A549 [1],6.83
same,pIC50,MCF7 [2],6.56
same,pIC50,L02 [3],6.40
same,pIC50,HepG2 [4],6.61
COc1cc([C@@H]2c3cc4c(cc3[C@H](OC(=O)[C@@H](N)Cc3ccccc3)[C@H]3COC(=O)[C@H]23)OCO4)cc(OC)c1OC,pIC50,A549 [1],8.42
same,pIC50,MCF7 [2],7.81
same,pIC50,L02 [3],8.05
same,pIC50,HepG2 [4],7.56
COc1cc([C@@H]2c3cc4c(cc3[C@@H](O[C@@H]3O[C@@H]5CO[C@@H](C)O[C@H]5[C@H](O)[C@H]3O)[C@H]3COC(=O)[C@H]23)OCO4)cc(OC)c1O [ETOPOSIDE],selectivity ratio,[13],0.5
same,pIC50,A549 [1],5.02
same,pIC50,MCF7 [2],5.33
same,pIC50,L02 [3],5.46
same,pIC50,HepG2 [4],< 4.30
COc1cc([C@@H]2c3cc4c(cc3[C@H](OC(=O)CN)[C@H]3COC(=O)[C@H]23)OCO4)cc(OC)c1OC,pIC50,A549 [1],7.89
same,Ratio IC50,MCF7 [14],650
same,pIC50,MCF7 [2],8.14
same,Ratio IC50,MCF7 [15],10
same,pIC50,L02 [3],7.84
same,pIC50,HepG2 [4],7.76
COc1cc([C@@H]2c3cc4c(cc3[C@H](OC(=O)CN(C)C(=O)c3nc(C)c(C)nc3C)[C@H]3COC(=O)[C@H]23)OCO4)cc(OC)c1OC,pIC50,A549 [1],7.70
same,pIC50,MCF7 [2],7.18
same,pIC50,L02 [3],7.80
same,pIC50,HepG2 [4],7.23
CC[C@H](C)[C@H](NC(=O)c1nc(C)c(C)nc1C)C(=O)O[C@H]1c2cc3c(cc2[C@@H](c2cc(OC)c(OC)c(OC)c2)[C@H]2C(=O)OC[C@@H]21)OCO3,pIC50,A549 [1],6.92
same,pIC50,MCF7 [2],6.01
same,pIC50,L02 [3],6.38
same,pIC50,HepG2 [4],6.46
CC[C@H](C)[C@H](N)C(=O)O[C@H]1c2cc3c(cc2[C@@H](c2cc(OC)c(OC)c(OC)c2)[C@H]2C(=O)OC[C@@H]21)OCO3,pIC50,A549 [1],7.72
same,pIC50,MCF7 [2],7.76
same,pIC50,L02 [3],7.95
same,pIC50,HepG2 [4],7.65
COc1cc([C@@H]2c3cc4c(cc3[C@H](OC(=O)[C@H](C)NC(=O)OC(C)(C)C)[C@H]3COC(=O)[C@H]23)OCO4)cc(OC)c1OC,pIC50,A549 [1],7.76
same,pIC50,MCF7 [2],6.97
same,pIC50,L02 [3],6.96
same,pIC50,HepG2 [4],7.09
COc1cc([C@@H]2c3cc4c(cc3[C@H](OC(=O)CNC(=O)c3nc(C)c(C)nc3C)[C@H]3COC(=O)[C@H]23)OCO4)cc(OC)c1OC,pIC50,A549 [1],8.03
same,pIC50,MCF7 [2],7.40
same,Ratio IC50,HepG2 [16],4200
same,pIC50,L02 [3],7.74
same,Ratio IC50,HepG2 [17],59
same,pIC50,HepG2 [4],7.93
COc1cc([C@@H]2c3cc4c(cc3[C@H](OC(=O)[C@@H](N)CC(C)C)[C@H]3COC(=O)[C@H]23)OCO4)cc(OC)c1OC,pIC50,A549 [1],7.83
same,pIC50,MCF7 [2],8.07
same,pIC50,L02 [3],7.67
same,pIC50,HepG2 [4],7.57
CC[C@H](C)[C@H](NC(=O)OC(C)(C)C)C(=O)O[C@H]1c2cc3c(cc2[C@@H](c2cc(OC)c(OC)c(OC)c2)[C@H]2C(=O)OC[C@@H]21)OCO3,pIC50,A549 [1],6.65
same,pIC50,MCF7 [2],6.20
same,pIC50,L02 [3],5.95
same,pIC50,HepG2 [4],6.16
COc1cc([C@@H]2c3cc4c(cc3[C@H](OC(=O)[C@@H]3CCCN3)[C@H]3COC(=O)[C@H]23)OCO4)cc(OC)c1OC,pIC50,A549 [1],8.55
same,pIC50,MCF7 [2],8.12
same,pIC50,L02 [3],8.21
same,pIC50,HepG2 [4],7.89
COc1cc([C@@H]2c3cc4c(cc3[C@H](OC(=O)[C@H](CC(C)C)NC(=O)OC(C)(C)C)[C@H]3COC(=O)[C@H]23)OCO4)cc(OC)c1OC,pIC50,A549 [1],6.89
same,pIC50,MCF7 [2],6.96
same,pIC50,L02 [3],6.75
same,pIC50,HepG2 [4],6.97
COc1cc([C@@H]2c3cc4c(cc3[C@H](OC(=O)[C@H](Cc3ccccc3)NC(=O)c3nc(C)c(C)nc3C)[C@H]3COC(=O)[C@H]23)OCO4)cc(OC)c1OC,pIC50,A549 [1],8.09
same,pIC50,MCF7 [2],7.95
same,pIC50,L02 [3],7.92
same,pIC50,HepG2 [4],7.61
COc1cccc2c1C(=O)c1c(O)c3c(c(O)c1C2=O)C[C@@](O)(C(=O)CO)C[C@@H]3O[C@H]1C[C@H](N)[C@H](O)[C@H](C)O1 [DOXORUBICIN],pIC50,A549 [1],6.64
same,pIC50,L02 [3],7.27
COc1cc([C@@H]2c3cc4c(cc3[C@H](OC(=O)[C@H](C)NC(=O)c3nc(C)c(C)nc3C)[C@H]3COC(=O)[C@H]23)OCO4)cc(OC)c1OC,pIC50,A549 [1],7.80
same,pIC50,MCF7 [2],7.81
same,pIC50,L02 [3],7.59
same,pIC50,HepG2 [4],7.57
COc1cc([C@@H]2c3cc4c(cc3[C@H](OC(=O)[C@H](CC(C)C)NC(=O)c3nc(C)c(C)nc3C)[C@H]3COC(=O)[C@H]23)OCO4)cc(OC)c1OC,pIC50,A549 [1],7.20
same,pIC50,MCF7 [2],6.90
same,pIC50,L02 [3],6.85
same,pIC50,HepG2 [4],7.05
